Reference: ChEMBL document CHEMBL1140163 (J Med Chem, 2008)

What was measured:
[1] = test system: THP-1; experiment: Inhibition of LPS-induced TNFalpha production in human THP1 cells; format: functional, cell-based
[2] = biological target: Mast/stem cell growth factor receptor Kit (Homo sapiens, UniProt P10721); experiment: Inhibition of cKit
[3] = biological target: Mitogen-activated protein kinase 9 (Homo sapiens, UniProt P45984); experiment: Inhibition of JNK2
[4] = test system: Blood; experiment: Inhibition of TNF-alpha-induced IL8 production in human whole blood cells; format: functional, cell-based
[5] = biological target: Mitogen-activated protein kinase 10 (Homo sapiens, UniProt P53779); experiment: Inhibition of JNK3
Chain of Mitogen-activated protein kinase 10 (P53779 whole entry): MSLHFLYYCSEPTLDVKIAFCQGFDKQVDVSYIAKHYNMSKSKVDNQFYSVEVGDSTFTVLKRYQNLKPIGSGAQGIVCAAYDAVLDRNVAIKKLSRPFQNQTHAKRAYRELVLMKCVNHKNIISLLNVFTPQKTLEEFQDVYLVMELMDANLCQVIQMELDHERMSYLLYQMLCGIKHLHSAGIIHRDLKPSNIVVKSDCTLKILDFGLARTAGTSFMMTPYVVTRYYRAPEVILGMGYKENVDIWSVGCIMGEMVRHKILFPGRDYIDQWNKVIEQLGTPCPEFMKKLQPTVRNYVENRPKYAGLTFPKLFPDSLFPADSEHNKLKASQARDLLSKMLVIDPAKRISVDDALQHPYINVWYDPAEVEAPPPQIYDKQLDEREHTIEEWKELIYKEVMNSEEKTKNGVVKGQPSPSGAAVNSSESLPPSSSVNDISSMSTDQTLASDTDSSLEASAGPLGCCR

[6] = biological target: Mitogen-activated protein kinase 14 (Homo sapiens, UniProt Q16539)
Chain of Mitogen-activated protein kinase 14 (Q16539 whole entry): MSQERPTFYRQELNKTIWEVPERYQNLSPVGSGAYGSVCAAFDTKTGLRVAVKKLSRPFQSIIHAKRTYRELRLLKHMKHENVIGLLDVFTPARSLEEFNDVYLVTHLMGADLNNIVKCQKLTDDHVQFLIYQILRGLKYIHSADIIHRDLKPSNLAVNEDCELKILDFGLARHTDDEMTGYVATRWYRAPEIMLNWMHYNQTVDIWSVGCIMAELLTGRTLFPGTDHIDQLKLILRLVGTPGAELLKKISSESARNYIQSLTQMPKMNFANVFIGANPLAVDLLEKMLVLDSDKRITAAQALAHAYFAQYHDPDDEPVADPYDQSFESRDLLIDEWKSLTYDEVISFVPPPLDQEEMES

[7] = biological target: Vascular endothelial growth factor receptor 2 (Homo sapiens, UniProt P35968)
Chain of Vascular endothelial growth factor receptor 2 (P35968 whole entry): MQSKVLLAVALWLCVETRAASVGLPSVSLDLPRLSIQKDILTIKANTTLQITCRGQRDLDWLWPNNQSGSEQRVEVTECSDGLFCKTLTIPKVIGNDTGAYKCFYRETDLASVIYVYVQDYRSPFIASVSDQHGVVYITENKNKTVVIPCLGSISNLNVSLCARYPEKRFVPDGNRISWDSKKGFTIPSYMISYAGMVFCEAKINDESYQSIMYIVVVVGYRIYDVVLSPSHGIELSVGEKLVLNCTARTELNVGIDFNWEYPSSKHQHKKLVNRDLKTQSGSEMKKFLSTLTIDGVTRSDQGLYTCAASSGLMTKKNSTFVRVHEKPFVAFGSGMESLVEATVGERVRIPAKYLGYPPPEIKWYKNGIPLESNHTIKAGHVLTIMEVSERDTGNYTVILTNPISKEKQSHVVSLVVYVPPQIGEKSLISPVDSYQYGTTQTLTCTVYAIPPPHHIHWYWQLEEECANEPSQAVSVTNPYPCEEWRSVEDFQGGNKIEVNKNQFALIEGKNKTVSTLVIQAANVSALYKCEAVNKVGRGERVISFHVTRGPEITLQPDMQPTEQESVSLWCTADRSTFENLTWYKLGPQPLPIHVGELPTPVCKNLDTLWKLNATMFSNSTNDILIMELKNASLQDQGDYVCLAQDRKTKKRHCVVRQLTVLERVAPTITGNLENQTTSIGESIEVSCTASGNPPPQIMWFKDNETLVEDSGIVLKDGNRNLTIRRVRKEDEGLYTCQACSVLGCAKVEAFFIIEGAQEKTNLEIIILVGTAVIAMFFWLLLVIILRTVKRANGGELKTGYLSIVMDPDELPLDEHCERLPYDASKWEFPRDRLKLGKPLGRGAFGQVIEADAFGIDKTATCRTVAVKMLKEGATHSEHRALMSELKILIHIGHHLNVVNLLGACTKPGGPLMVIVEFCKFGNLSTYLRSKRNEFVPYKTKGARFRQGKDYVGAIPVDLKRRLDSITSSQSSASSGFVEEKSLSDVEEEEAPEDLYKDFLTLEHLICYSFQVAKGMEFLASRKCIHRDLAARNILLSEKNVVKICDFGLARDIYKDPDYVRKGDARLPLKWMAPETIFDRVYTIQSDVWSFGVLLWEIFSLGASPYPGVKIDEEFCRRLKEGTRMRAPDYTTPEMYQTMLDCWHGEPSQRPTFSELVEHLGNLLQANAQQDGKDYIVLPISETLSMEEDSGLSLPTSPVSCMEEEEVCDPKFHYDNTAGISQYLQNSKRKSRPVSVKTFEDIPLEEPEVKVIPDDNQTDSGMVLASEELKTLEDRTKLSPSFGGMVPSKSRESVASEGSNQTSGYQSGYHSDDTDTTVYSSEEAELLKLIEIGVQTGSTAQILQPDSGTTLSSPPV

[8] = biological target: Tyrosine-protein kinase Lck (Homo sapiens, UniProt P06239)
Chain of Tyrosine-protein kinase Lck (P06239 whole entry): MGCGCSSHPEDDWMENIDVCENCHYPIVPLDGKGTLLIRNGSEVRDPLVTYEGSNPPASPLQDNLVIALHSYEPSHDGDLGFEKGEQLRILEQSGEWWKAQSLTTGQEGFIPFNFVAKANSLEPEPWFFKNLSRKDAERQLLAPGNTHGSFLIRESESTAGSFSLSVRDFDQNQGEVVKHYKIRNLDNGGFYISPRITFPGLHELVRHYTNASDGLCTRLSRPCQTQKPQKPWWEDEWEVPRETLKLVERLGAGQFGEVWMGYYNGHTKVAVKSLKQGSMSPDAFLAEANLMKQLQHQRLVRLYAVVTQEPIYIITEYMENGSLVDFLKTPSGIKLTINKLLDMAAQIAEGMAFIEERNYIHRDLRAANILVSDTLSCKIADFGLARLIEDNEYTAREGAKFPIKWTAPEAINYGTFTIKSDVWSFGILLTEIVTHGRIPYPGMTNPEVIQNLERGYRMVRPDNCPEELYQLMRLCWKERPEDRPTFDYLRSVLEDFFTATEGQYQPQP

[9] = biological target: Mitogen-activated protein kinase 8 (Homo sapiens, UniProt P45983); experiment: Inhibition of JNK1
Chain of Mitogen-activated protein kinase 8 (P45983 whole entry): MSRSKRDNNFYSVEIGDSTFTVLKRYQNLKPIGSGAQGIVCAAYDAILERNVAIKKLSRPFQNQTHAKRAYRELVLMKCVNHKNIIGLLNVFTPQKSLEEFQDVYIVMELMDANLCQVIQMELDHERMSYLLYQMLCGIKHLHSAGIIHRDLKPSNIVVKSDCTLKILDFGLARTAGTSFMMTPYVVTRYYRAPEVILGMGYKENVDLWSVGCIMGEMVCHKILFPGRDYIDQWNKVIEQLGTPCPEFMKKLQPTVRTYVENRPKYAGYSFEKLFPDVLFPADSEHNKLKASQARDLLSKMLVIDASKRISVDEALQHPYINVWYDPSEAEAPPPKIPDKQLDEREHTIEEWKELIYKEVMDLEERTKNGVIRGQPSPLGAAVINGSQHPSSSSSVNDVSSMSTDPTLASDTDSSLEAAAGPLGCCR

[10] = Clearance in Sprague-Dawley rat 2 mg/kg, iv; format: ADME, organism-based; set-up: dose 2 mg/kg, route intravenous; conditions: in vivo
[11] = Volume of distribution at steady state in Sprague-Dawley rat 2 mg/kg, iv; format: ADME, organism-based; set-up: dose 2 mg/kg, route intravenous; conditions: in vivo, read-out: Vdss
[12] = Half life in Sprague-Dawley rat 2 mg/kg, iv; format: ADME, organism-based; set-up: dose 2 mg/kg, route intravenous; conditions: in vivo
[13] = AUC (0 to infinity) in Sprague-Dawley rat 10 mg/kg, po; format: ADME, organism-based; set-up: dose 10 mg/kg, route oral, time infinity; conditions: plasma
[14] = Oral bioavailability in Sprague-Dawley rat 10 mg/kg; format: ADME, organism-based; conditions: in vivo
[15] = Volume of distribution at steady state in Sprague-Dawley rat 1 mg/kg, iv; format: ADME, organism-based; set-up: dose 1 mg/kg, route intravenous; conditions: in vivo, read-out: Vdss
[16] = Permeability from apical to basolateral side of human Caco-2 cells; format: ADME, cell-based
[17] = AUC (0 to infinity) in Sprague-Dawley rat 1 mg/kg, po; format: ADME, organism-based; set-up: time infinity, dose 1 mg/kg, route oral; conditions: plasma
[18] = Permeability from basolateral to apical side of human Caco-2 cells; format: ADME, cell-based
[19] = Oral bioavailability in Sprague-Dawley rat 1 mg/kg; format: ADME, organism-based; conditions: in vivo
[20] = Half life in Sprague-Dawley rat 1 mg/kg, iv; format: ADME, organism-based; set-up: dose 1 mg/kg, route intravenous; conditions: in vivo
[21] = Clearance in Sprague-Dawley rat 1 mg/kg, iv; format: ADME, organism-based; set-up: dose 1 mg/kg, route intravenous; conditions: in vivo
[22] = test system: Rattus norvegicus; experiment: Antiinflammatory activity against collagen-induced arthritis in po dosed Lewis rat model assessed as inhibition of paw swelling; format: functional
[23] = biological target: Tyrosine-protein kinase Lyn (Homo sapiens, UniProt P07948); experiment: Inhibition of Lyn
Chain of Tyrosine-protein kinase Lyn (P07948 whole entry): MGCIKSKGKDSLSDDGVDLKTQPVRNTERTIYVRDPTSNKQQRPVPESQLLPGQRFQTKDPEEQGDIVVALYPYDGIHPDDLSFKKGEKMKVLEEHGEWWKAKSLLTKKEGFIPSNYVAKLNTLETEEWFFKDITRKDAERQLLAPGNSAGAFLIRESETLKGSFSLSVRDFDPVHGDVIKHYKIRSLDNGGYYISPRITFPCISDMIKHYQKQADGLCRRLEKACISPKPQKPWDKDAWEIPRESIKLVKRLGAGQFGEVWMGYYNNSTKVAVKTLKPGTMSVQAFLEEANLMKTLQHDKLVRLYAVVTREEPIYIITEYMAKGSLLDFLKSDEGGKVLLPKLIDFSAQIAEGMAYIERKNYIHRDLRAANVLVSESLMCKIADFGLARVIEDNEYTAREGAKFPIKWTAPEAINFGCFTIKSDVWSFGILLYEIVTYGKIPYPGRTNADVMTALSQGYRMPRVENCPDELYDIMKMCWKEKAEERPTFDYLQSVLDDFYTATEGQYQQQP

[24] = species: Rattus norvegicus; experiment: Inhibition of LPS-induced TNFalpha production in Lewis rat; format: functional
[25] = test system: Rattus norvegicus; experiment: Antiinflammatory activity against collagen-induced arthritis Lewis rat model assessed as area under the paw swelling curve at 0.04 mg/kg, po relative to control; format: functional, organism-based; set-up: dose 0.04 mg/kg
[26] = Inhibition of PDGFR

Chain of Mast/stem cell growth factor receptor Kit (P10721 whole entry): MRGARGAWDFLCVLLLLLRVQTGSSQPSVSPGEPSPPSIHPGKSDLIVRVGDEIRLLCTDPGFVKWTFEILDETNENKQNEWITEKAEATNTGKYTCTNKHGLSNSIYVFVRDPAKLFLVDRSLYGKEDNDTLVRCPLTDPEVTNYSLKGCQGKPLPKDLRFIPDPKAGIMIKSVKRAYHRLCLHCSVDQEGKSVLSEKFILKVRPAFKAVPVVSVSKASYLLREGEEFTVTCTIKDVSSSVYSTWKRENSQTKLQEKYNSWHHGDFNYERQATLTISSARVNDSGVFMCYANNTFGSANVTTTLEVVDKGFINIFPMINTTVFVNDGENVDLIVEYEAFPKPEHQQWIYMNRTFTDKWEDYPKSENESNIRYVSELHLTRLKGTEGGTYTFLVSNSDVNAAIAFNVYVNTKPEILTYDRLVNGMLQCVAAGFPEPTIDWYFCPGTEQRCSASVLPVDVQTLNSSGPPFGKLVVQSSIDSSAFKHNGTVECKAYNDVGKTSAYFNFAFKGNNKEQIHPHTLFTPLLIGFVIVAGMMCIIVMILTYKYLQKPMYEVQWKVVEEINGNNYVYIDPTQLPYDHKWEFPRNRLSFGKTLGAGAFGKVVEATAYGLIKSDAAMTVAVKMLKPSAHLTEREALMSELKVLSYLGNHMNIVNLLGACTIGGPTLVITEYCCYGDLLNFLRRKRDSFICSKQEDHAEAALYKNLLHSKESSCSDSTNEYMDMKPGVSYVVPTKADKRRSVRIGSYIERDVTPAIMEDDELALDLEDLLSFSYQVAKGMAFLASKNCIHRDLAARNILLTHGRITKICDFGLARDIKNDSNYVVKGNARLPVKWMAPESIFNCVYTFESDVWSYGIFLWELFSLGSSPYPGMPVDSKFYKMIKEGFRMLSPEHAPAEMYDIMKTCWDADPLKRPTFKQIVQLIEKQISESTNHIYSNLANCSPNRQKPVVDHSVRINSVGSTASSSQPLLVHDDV
Chain of Mitogen-activated protein kinase 9 (P45984 whole entry): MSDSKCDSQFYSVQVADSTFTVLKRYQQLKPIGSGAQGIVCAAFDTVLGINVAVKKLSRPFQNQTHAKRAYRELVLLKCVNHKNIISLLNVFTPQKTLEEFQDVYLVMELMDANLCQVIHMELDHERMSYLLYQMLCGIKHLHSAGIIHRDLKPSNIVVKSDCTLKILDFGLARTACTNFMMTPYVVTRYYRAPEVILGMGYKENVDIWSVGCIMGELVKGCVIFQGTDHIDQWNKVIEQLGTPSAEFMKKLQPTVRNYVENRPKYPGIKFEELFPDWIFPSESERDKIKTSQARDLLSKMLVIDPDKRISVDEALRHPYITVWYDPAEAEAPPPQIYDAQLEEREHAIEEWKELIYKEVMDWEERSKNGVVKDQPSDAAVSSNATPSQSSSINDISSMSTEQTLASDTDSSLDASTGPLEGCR

Compound | IC50 [1] [nM] | IC50 [2] [nM] | IC50 [3] [nM] | IC50 [4] [nM] | IC50 [5] [nM] | IC50 [6] [nM] | IC50 [7] [nM] | IC50 [8] [nM] | IC50 [9] [nM] | clearance [10] [mL/min/kg] | Vd [11] [L/kg] | half-life [12] [h] | AUC(0-inf) [13] [ng·h/mL] | bioavailability [14] [%] | also measured
Cc1ccc(C(=O)NC2CC2)cc1-c1ccc2c(-c3ccccc3)nncc2c1 | 0.8 | 149 | > 10000 | 3.5 | > 10000 | 2 | 6290 | 1340 | > 10000 |  |  |  |  |  | 
O=C(NC1CC1)c1cccc(-c2ccc3c(N4CCOCC4)nncc3c2)c1 |  | > 8330 |  |  |  | 182 |  |  |  |  |  |  |  |  | 
Cc1ccc(C(=O)NC2CC2)cc1-c1ccc2c(N3CCOC[C@@H]3C)nncc2c1 | 1.1 | 2010 | 4830 | 1.2 | > 10000 | 1.1 | 8550 | > 10000 | > 10000 | 13.3 | 1.2 | 1.3 | 7090 | 57 | 
Cc1ccc(C(=O)NC2CC2)cc1-c1ccc2c(N3CCOCC3)nncc2c1 | 0.7 | 529 | 9690 | 0.9 | > 10000 | 1.2 | 3040 | 3810 | > 10000 |  |  |  |  |  | Vd [15]: 3.5 L/kg; Papp A→B [16]: 10.5 ×10⁻⁶ cm/s; AUC(0-inf) [17]: 124 ng·h/mL; Papp B→A [18]: 39.8 ×10⁻⁶ cm/s; bioavailability [19]: 22%; half-life [20]: 4.1 h; clearance [21]: 28.3 mL/min/kg
Cc1ccc(C(=O)NC2CC2)cc1-c1ccc2c(-c3ccccc3C)nncc2c1 |  |  |  |  |  |  |  |  |  | 28.3 | 1.8 | 1.4 | 2330 | 40 | 
Cc1ccc(C(=O)NC2CC2)cc1-c1ccc2c(NCCN3CCOCC3)nncc2c1 | 24.9 | 1060 | > 10000 | 4.3 | > 10000 | 1.9 | 5140 | > 10000 | > 10000 | 20 | 2.8 | 2.3 | 39 | 1 | Papp A→B [16]: 0.3 ×10⁻⁶ cm/s; Papp B→A [18]: 31 ×10⁻⁶ cm/s
Cc1ccc(C(=O)NC2CC2)cc1-c1ccc2c(O[C@H](C)C(F)(F)F)nncc2c1 | 0.9 | 1170 | 4390 | 8.1 | 9490 | 0.8 | 505 | 6050 | > 10000 |  |  |  |  |  | 

Further lines, with some results ahead:

IC50 [1] [nM] | IC50 [2] [nM] | IC50 [3] [nM] | IC50 [4] [nM] | IC50 [5] [nM] | IC50 [6] [nM] | IC50 [7] [nM] | IC50 [8] [nM] | IC50 [9] [nM] | clearance [10] [mL/min/kg] | Vd [11] [L/kg] | half-life [12] [h] | AUC(0-inf) [13] [ng·h/mL] | bioavailability [14] [%] | Compound | also measured
 | 41 |  |  |  | 0.6 |  |  |  |  |  |  |  |  | Cc1ccc(C(=O)NC2CC2)cc1-c1ccc2c(OC(C)C)cncc2c1 | 
0.4 | 421 | 5950 | 1.6 | > 10000 | 0.6 | 1140 | 3610 | > 10000 | 13.3 | 2.1 | 1.8 | 10900 | 92 | Cc1ccc(C(=O)NC2CC2)cc1-c1ccc2c(OC(C)C)nncc2c1 | 
0.4 | 1060 | 7770 | 2.7 | > 10000 | 1 | 2680 | > 5000 | > 10000 | 5.83 | 4.7 | 9.9 | 21100 | 72 | Cc1ccc(C(=O)NC2CC2)cc1-c1ccc2c(O[C@@H](C)C(F)(F)F)nncc2c1 | ED50 [22]: 0.04 mg/kg; IC50 [23]: 954 nM; ED50 [24]: < 0.03 mg/kg; AUC [25]: 51.1 ng·h/mL; IC50 [26]: 88 nM
